# Molecular target: T1, Glycylpeptide N-tetradecanoyltransferase (Candida albicans (strain SC5314 / ATCC MYA-2876), UniProt P30418)
# T1 sequence (P30418 whole entry): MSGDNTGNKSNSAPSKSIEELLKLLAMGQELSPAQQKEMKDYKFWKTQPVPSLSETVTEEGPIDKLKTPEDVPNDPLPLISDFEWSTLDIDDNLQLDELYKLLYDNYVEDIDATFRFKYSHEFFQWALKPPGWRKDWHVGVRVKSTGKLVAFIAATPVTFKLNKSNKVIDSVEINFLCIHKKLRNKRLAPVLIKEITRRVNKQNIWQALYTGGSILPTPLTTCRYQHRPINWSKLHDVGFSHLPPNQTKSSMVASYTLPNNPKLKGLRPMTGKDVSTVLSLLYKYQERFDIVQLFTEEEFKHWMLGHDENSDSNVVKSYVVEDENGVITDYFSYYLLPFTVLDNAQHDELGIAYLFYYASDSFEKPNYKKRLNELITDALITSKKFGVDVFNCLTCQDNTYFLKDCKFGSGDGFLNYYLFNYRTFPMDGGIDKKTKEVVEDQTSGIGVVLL
# Experiment: The Compound was tested for the inhibition potency against Candida albicans N-myristoyltransferase (NMT) and reported as apparent Ki
substance,measurement,value
H-ALYASKLS-NH2,Ki,15.3 µM
